Data taken from US20240206469A1, “PHOSPHORUS USE EFFICIENCY ENHANCERS AS PLANT GROWTH PROMOTORS” (EUROCHEM ANTWERPEN, priority 2021, published 2024).

Tests used:
Soybean = Soybean pot experiment; format: in vivo, soybean cultivar Primus; conditions: low phosphate, 10 μM, 4 weeks
Method: All Arabidopsis plant experiments were performed using the Arabidopsis thaliana Columbia-0 background. The Arabidopsis pSPX1::GUS line is described in the Plant Journal 2008, 54: 965-975. For rice, the cultivar Nipponbare was used. For maize, the cultivars DKC 2931 and B104 were used for regular pot experiments and sand-based pot experiments, respectively. For soybean, the cultivar Primus was used. […] The medium was solidified due to the addition of 0.6% Gelrite, unless stated otherwise. […]
Regular Arabidopsis, soybean and maize pot experiments used an unfertilized potting soil, which was supplemented at the start of the experiment with 50 ml H2O containing 0.25 g/l NH4NO3 and 0.44 g/l (high phosphate) or no (maize and soybean) or 0.11 g/l KH2PO (Arabidopsis) for low phosphate conditions. […] Compound concentration was 10 μM, calculated based on the total water content after watering, and was added at the start of the experiment (Arabidopsis) or once a week (maize). […] All parameters in the sand experiment, except the rate of leaf 4 (measured the first 4 days after emergence), were measured 19 days after sowing. Measurements in the pot experiments with potting soil were done after 4 weeks of growth, except for leaf 5, which was measured at 26 days. […]

Arabidopsis = Arabidopsis vertical plate growth assay (primary root length, shoot biomass); format: in vivo, Arabidopsis thaliana; conditions: 10 μM, low phosphate
Method: All Arabidopsis plant experiments were performed using the Arabidopsis thaliana Columbia-0 background. The Arabidopsis pSPX1::GUS line is described in the Plant Journal 2008, 54: 965-975. For rice, the cultivar Nipponbare was used. For maize, the cultivars DKC 2931 and B104 were used for regular pot experiments and sand-based pot experiments, respectively. For soybean, the cultivar Primus was used. […] The medium was solidified due to the addition of 0.6% Gelrite, unless stated otherwise. In case of vertical plates (root length and root hair measurements), the medium was supplied with 0.5% of sucrose and 1 μM (low phosphate, 1 μM KH2PO4, 9.9 mM KCl), 10 μM (low phosphate 10 μM KH2PO4, 9.9 mM KCl) or 1.25 mM KH2PO4 (high phosphate). Arabidopsis seeds were stratified for 2 days at 4° C. before germination. Seedlings were germinated in climate-controlled growth chambers at 22° C. under continuous light (100 μmol m^−2 s^−1). Husked rice seeds were germinated on wetted Whatman paper for 2 days at 37° C. and then transferred to Sterivent boxes or square Petri dishes with solid medium. Maize and soybean seeds were wetted 24 hours at room temperature prior to sowing in pots.
Arabidopsis primary root growth experiments were done on MS1/2 on vertical standing plates and roots were measured 11 days after germination. Roots were imaged using a flatbed scanner (EPSON Expression 11000XL) and root length was measured using ImageJ software. Arabidopsis shoot biomass was determined in 11 days after germination and growth on vertical standing plates with modMS. Arabidopsis leaf area was measured 21 days after germination on horizontal plates with modMS medium. Plates were scanned from the top using a flatbed scanner (EPSON Expression 11000XL) and the visible leaf area was measured using ImageJ software. Rice plate experiments used vertically standing Petri dishes containing MS1/2 medium (low phosphate—0.001 mM) solidified with 0.8% washed agar. Plant height was measured 11 days after germination. […] Plant height was measured 13 days after germination. […]

Maize DKC2931 = assay: Long-term maize pot experiment, DKC2931 (PHENOVISION); format: in vivo, maize cultivar DKC 2931
Method: Regular Arabidopsis, soybean and maize pot experiments used an unfertilized potting soil, which was supplemented at the start of the experiment with 50 ml H2O containing 0.25 g/l NH4NO3 and 0.44 g/l (high phosphate) or no (maize and soybean) or 0.11 g/l KH2PO (Arabidopsis) for low phosphate conditions. For the sand-based maize pot experiment, sand was supplemented with 50 ml H2O containing 0.25 g/l NH4NO3 and 0.38 g/l (high phosphate) or 0.02 g/l (low phosphate) KH2PO4. Potassium was balanced via addition of KCl. Compound concentration was 10 μM, calculated based on the total water content after watering, and was added at the start of the experiment (Arabidopsis) or once a week (maize). Indexed chlorophyll contents were received via a SPAD 502 Plus Chlorophyll Meter. All parameters in the sand experiment, except the rate of leaf 4 (measured the first 4 days after emergence), were measured 19 days after sowing. Measurements in the pot experiments with potting soil were done after 4 weeks of growth, except for leaf 5, which was measured at 26 days. One long-term maize pot experiment was conducted with the DKC 2931 (2.5 months) and B104 (3 months) cultivars on the PHENOVISION phenotyping platform as described in Frontiers in Plant Science 2021, 12: 640914, except that an unfertilized potting soil was used and that plants were fertilized with a low-phosphate Hoagland solution. The 2.5× overconcentrated low-phosphate Hoagland solution contained 0.034 g/l KH2PO and 200 mL of this solution was applied twice a week. 1.4 mL of a 10 mM compound solution was added each two weeks to each pot, corresponding to 9.6 mg/g nutrients. 13 plants per condition were used. During the experiment, pictures were taken twice a week for each plants from 6 different angles and the top. Pictures were used to extract the plant height and to extract the projected plant area from each side and calculate an estimated plant volume over time.

Maize = Maize growth experiment in pots with mixture of unfertilized potting soil and sand (leaf 5); format: in vivo; conditions: maize, pots with unfertilized potting soil and sand, after 29 days; control 38.1
Method: For a subset of compounds, we performed a more extensive analysis on their root hair inducing effect in a dose-response experiment (Table 3). This confirms that the more simple structures 8.14 and 8.14.6 still retain the activity of compound 8. […] To validate this, we performed a maize growth experiment using compound 8 and the, based on the increase of total root hair length, stronger variant 8.14.6. The experiment was conducted in pots with a mixture of unfertilized potting soil and sand, and leaf 5 was measured after 29 days (Table 4).

CC1CN(CC(=O)c2c(N)n(C)c(=O)n(C)c2=O)c2ccccc2O1 (centres unmarked) [Compound 8, 6-amino-1,3-dimethyl-5-[2-(2-methyl-2,3-dihydro-1,4-benzoxazin-4-yl)acetyl]pyrimidine-2,4-dione]
Biomass (Soybean; control 4.1): 4.4 g | Plant height (Soybean; control 50): 55 cm | Primary root length versus control without compound (Arabidopsis; 11-day-old Arabidopsis): almost double the length of the control | Primary root length (Arabidopsis; Arabidopsis vertical plate, 11 days after germination, control 1.8): 3.5 cm | Shoot biomass (Arabidopsis; Arabidopsis vertical plate, 11 days after germination, control 11): 21 mg | Plant height (Maize DKC2931; DKC2931, day 15, control 288): 297 mm | Estimated volume (Maize DKC2931; DKC2931, day 15, control 361): 393 cm^3 | Plant height (Maize DKC2931; DKC2931, day 19, control 352): 368 mm | Estimated volume (Maize DKC2931; DKC2931, day 19, control 576): 763 cm^3 | Plant height (Maize DKC2931; DKC2931, day 22, control 335): 372 mm | Estimated volume (Maize DKC2931; DKC2931, day 22, control 843): 1104 cm^3 | Plant height (Maize DKC2931; DKC2931, day 26, control 378): 452 mm | Estimated volume (Maize DKC2931; DKC2931, day 26, control 1145): 1646 cm^3 | Plant height (Maize DKC2931; DKC2931, day 27, control 352): 460 mm | Estimated volume (Maize DKC2931; DKC2931, day 27, control 1086): 1826 cm^3 | Plant height (Maize DKC2931; DKC2931, day 29, control 399): 471 mm | Estimated volume (Maize DKC2931; DKC2931, day 29, control 1581): 2187 cm^3 | Plant height (Maize DKC2931; DKC2931, day 33, control 424): 553 mm | Estimated volume (Maize DKC2931; DKC2931, day 33, control 2272): 3213 cm^3 | Plant height (Maize DKC2931; DKC2931, day 36, control 531): 634 mm | Estimated volume (Maize DKC2931; DKC2931, day 36, control 2854): 3881 cm^3 | Plant height (Maize DKC2931; DKC2931, day 40, control 578): 694 mm | Estimated volume (Maize DKC2931; DKC2931, day 40, control 3872): 5092 cm^3 | Plant height (Maize DKC2931; DKC2931, day 43, control 655): 756 mm | Estimated volume (Maize DKC2931; DKC2931, day 43, control 4240): 5538 cm^3 | Plant height (Maize DKC2931; DKC2931, day 47, control 732): 799 mm | Estimated volume (Maize DKC2931; DKC2931, day 47, control 4988): 6770 cm^3 | Plant height (Maize DKC2931; DKC2931, day 50, control 777): 844 mm | Estimated volume (Maize DKC2931; DKC2931, day 50, control 5718): 7419 cm^3 | Plant height (Maize DKC2931; DKC2931, day 54, control 562): 652 mm | Estimated volume (Maize DKC2931; DKC2931, day 54, control 6325): 8086 cm^3 | Plant height (Maize DKC2931; DKC2931, day 57, control 678): 894 mm | Estimated volume (Maize DKC2931; DKC2931, day 57, control 6295): 7681 cm^3 | Plant height (Maize DKC2931; DKC2931, day 61, control 893): 1021 mm | Estimated volume (Maize DKC2931; DKC2931, day 61, control 6047): 7458 cm^3 | Plant height (Maize DKC2931; DKC2931, day 63, control 811): 880 mm | Estimated volume (Maize DKC2931; DKC2931, day 63, control 5546): 6642 cm^3 | Plant height (Maize DKC2931; DKC2931, day 68, control 849): 895 mm | Estimated volume (Maize DKC2931; DKC2931, day 68, control 4292): 4967 cm^3 | Plant height (Maize DKC2931; DKC2931, day 71, control 856): 916 mm | Estimated volume (Maize DKC2931; DKC2931, day 71, control 4022): 4807 cm^3 | Plant height (Maize DKC2931; DKC2931, day 75, control 798): 903 mm | Estimated volume (Maize DKC2931; DKC2931, day 75, control 3778): 4587 cm^3 | Average number of ears (Maize DKC2931; Maize pot long term DKC2931, 2.5 months, low phosphate, control 1): 1 | Shoot weight (Maize DKC2931; Maize pot long term DKC2931, low phosphate, control 27): 33 g | Leaf 6 (Maize DKC2931; Maize pot long term DKC2931, low phosphate, control 53): 58 cm | Leaf 5 (Maize): 39.4 cm
